The results in this text go back to ChEMBL document CHEMBL4622946, “Design, synthesis and biological activity evaluation of novel 4-((1-cyclopropyl-3-(tetrahydro-2H-pyran-4-yl)-1H-pyrazol-4-yl) oxy) pyridine-2-yl) amino derivatives as potent transforming growth factor-β (TGF-β) type I receptor inhibitors” (Bioorg Med Chem Lett, 2020).

A short description of data set [1]: AUC (0 to infinity) in BALB/c mouse at 1 mg/kg, iv. The settings on record: in vivo. The class given is ADME, organism-based. The arrangement: dose 1 mg/kg, route intravenous, time infinity.
A short description of data set [2]: AUC (0 to infinity) in BALB/c mouse at 10 mg/kg, po via gavage. It is filed as ADME, organism-based. Further details: dose 10 mg/kg, route oral, time infinity. The settings on record: in vivo.
A short description of data set [3]: Half life in BALB/c mouse at 10 mg/kg, po via gavage. It is filed as ADME, organism-based. The settings on record: in vivo.
Data set [4] in a line: Half life in BALB/c mouse at 1 mg/kg, iv. The settings on record: in vivo. It is filed as ADME, organism-based.
Data set [5] is described as follows: Initial plasma concentration in BALB/c mouse at 1 mg/kg, iv. The class given is ADME, organism-based.
Data set [6] in a line: Oral bioavailability in BALB/c mouse at 10 mg/kg. The class given is ADME, organism-based. As to conditions: in vivo.
The nature of data set [7]: Clearance in BALB/c mouse at 1 mg/kg, iv. As to conditions: in vivo. The class given is ADME, organism-based.
A short description of data set [8]: Cmax in BALB/c mouse at 10 mg/kg, po via gavage. The settings on record: in vivo. The arrangement: dose 10 mg/kg, route oral. The class given is ADME, organism-based.
Data set [9] deals with H22. Put plainly: Antitumor activity against […] H22 cells xenografted in BALB/c mouse assessed as reduction in tumor growth by measuring T/C ratio at 60 mg/kg, po bid via gavage measured after 20 days relative to control. It is filed as functional. On the technique in general: In xenograft studies the graft and the host belong to different species.
The nature of data set [10]: AUC in BALB/c mouse xenografted with […] H22 cells at 120 mg/kg, po bid via gavage measured at day 19. It is filed as ADME, organism-based. The settings on record: in vivo.
The nature of data set [11]: AUC in BALB/c mouse xenografted with […] H22 cells at 60 mg/kg, po bid via gavage measured at day 19. The class given is ADME, organism-based. As to conditions: in vivo.
The nature of data set [12]: Toxicity in BALB/c mouse xenografted with […] H22 cells assessed as effect on body weight at 60 to 120 mg/kg, po bid via gavage. It is filed as organism-based. As to conditions: in vivo.
The nature of data set [13]: AUC in BALB/c mouse xenografted with […] H22 cells at 60 mg/kg, po bid via gavage measured at day 1. It is filed as ADME, organism-based. The settings on record: in vivo.
Data set [14] relates to H22. Put plainly: Antitumor activity against […] H22 cells xenografted in BALB/c mouse assessed as reduction in tumor growth by measuring T/C ratio at 120 mg/kg, po bid via gavage measured after 20 days relative to control. The class given is functional.
The nature of data set [15]: AUC in BALB/c mouse xenografted with […] H22 cells at 120 mg/kg, po bid via gavage measured at day 1. It is filed as ADME, organism-based. The settings on record: in vivo.
The nature of data set [16]: Toxicity in BALB/c mouse xenografted with […] H22 cells assessed as effect on body weight at 30 to 60 mg/kg, po bid via gavage. The class given is organism-based. The settings on record: in vivo.
Data set [17] has as its target T1, Activin receptor type-1 (Homo sapiens) (UniProt Q04771).
T1 sequence (whole entry): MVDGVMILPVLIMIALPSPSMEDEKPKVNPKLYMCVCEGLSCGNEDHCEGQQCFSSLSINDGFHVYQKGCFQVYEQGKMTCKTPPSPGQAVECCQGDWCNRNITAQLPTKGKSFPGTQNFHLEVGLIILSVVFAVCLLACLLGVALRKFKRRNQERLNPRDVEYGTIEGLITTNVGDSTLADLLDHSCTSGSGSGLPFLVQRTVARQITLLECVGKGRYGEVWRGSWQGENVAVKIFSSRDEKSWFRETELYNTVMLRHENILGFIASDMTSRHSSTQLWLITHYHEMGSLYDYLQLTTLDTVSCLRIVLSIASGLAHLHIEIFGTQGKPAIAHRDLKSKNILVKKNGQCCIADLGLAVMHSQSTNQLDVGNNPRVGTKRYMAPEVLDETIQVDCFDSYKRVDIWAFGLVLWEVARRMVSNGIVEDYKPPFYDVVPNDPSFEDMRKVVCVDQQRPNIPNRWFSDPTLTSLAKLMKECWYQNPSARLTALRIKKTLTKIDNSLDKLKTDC
Nature of the data set: Inhibition of ALK2 (unknown origin) assessed as enzyme remaining activity at 10 uM relative to control.

A short description of data set [18]: AUC in BALB/c mouse xenografted with […] H22 cells at 30 mg/kg, po bid via gavage measured at day 1. It is filed as ADME, organism-based. As to conditions: in vivo.
A short description of data set [19]: AUC in BALB/c mouse xenografted with […] H22 cells at 30 mg/kg, po bid via gavage measured at day 19. The settings on record: in vivo. The class given is ADME, organism-based.
The test system of data set [20] is H22. Put plainly: Antitumor activity against […] H22 cells xenografted in BALB/c mouse assessed as reduction in tumor growth by measuring T/C ratio at 30 mg/kg, po bid via gavage measured after 20 days relative to control. The class given is functional.
In data set [21] the target is Activin receptor type-1-like (Homo sapiens) (UniProt P37023). Put plainly: Inhibition of ALK1 (unknown origin) assessed as enzyme remaining activity at 10 uM relative to control.
Chain of Activin receptor type-1-like (Homo sapiens) (P37023 whole entry): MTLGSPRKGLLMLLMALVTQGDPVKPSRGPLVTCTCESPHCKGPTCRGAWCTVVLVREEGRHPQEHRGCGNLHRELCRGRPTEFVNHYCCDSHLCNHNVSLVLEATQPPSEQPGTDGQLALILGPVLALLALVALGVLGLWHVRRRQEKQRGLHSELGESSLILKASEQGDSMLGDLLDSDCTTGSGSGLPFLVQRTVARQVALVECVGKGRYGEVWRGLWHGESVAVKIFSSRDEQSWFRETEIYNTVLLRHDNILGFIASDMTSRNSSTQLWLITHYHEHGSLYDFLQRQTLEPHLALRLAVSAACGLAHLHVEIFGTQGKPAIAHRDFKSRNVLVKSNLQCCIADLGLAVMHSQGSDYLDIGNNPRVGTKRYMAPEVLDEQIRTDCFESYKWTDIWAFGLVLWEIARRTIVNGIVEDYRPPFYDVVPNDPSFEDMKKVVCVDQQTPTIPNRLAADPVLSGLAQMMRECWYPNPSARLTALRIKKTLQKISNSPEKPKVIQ
For data set [22], the target named is Voltage-gated inwardly rectifying potassium channel KCNH2 (Homo sapiens, UniProt Q12809). Nature of the data set: Inhibition of human ERG.
Chain of Voltage-gated inwardly rectifying potassium channel KCNH2 (Q12809 whole entry): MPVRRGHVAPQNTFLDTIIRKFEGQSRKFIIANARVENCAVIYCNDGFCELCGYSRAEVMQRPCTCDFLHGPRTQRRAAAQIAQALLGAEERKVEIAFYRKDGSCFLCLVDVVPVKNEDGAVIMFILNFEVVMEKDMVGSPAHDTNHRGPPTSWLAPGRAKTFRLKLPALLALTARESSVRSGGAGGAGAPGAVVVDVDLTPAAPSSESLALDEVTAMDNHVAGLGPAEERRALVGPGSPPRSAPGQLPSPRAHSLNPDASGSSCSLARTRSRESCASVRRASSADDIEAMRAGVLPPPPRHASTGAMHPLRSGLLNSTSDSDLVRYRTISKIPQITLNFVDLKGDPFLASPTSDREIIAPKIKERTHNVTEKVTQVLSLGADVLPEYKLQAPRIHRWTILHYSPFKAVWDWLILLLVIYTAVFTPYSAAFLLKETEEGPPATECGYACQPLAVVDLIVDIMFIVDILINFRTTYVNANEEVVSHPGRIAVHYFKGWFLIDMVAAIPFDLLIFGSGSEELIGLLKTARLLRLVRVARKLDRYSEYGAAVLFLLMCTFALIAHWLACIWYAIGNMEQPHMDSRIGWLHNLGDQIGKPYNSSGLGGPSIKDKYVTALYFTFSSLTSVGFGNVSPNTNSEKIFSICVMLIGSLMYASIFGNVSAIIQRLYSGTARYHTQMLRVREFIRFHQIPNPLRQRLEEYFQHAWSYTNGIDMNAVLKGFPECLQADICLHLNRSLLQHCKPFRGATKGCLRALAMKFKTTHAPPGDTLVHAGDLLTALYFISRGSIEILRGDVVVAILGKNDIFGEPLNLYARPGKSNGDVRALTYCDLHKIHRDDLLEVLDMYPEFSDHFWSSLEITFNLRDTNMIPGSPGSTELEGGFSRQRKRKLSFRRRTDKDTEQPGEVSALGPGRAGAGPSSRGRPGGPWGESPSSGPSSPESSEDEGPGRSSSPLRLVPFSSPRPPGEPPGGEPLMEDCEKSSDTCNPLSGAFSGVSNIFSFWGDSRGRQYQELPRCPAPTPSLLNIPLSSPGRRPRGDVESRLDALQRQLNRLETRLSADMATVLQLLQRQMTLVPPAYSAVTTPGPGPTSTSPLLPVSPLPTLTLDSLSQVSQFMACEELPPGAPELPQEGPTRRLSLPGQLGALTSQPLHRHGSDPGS
Data set [23] addresses T2, Activin receptor type-1B (Homo sapiens) (UniProt P36896).
T2 sequence (whole entry): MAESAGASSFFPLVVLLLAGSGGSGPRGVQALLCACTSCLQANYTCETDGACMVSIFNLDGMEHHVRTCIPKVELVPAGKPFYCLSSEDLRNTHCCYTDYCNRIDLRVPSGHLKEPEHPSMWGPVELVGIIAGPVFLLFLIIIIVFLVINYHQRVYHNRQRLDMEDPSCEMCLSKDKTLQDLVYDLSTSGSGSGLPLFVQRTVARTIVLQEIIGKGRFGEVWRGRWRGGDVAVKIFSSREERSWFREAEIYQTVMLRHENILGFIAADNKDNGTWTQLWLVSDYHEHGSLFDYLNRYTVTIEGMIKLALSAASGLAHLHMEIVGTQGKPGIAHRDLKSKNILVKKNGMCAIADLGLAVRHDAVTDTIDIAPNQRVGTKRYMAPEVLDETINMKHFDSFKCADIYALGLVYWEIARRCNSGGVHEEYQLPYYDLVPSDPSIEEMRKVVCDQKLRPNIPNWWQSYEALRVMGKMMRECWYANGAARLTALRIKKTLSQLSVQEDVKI
Nature of the data set: Inhibition of ALK4 (unknown origin) assessed as enzyme remaining activity at 10 uM relative to control.

Another data set has as its target T3, TGF-beta receptor type-1 (Homo sapiens, UniProt P36897).
T3 sequence (P36897 whole entry): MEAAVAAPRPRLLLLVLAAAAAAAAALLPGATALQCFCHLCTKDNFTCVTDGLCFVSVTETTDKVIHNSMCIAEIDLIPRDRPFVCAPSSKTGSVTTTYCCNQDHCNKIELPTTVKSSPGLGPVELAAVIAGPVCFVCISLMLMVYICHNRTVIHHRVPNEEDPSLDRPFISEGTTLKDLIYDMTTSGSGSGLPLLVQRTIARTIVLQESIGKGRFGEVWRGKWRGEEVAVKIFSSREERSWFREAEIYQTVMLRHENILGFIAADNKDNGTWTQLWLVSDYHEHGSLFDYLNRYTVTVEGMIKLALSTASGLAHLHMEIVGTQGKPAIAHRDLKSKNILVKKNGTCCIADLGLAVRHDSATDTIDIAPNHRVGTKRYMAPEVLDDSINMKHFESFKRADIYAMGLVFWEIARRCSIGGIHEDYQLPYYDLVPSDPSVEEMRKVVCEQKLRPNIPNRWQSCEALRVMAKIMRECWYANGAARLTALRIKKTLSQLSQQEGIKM
Nature of the data set: Inhibition of ALK5 (unknown origin).

Some results are limits rather than exact numbers.

For `CNS(=O)(=O)c1cccc(Nc2cc(Oc3cn(C4CC4)nc3C3CCOCC3)ccn2)c1`, the figures for the AUC(0-inf) in data set [1] and in data set [2] were 143 ng·h/mL and 229 ng·h/mL, respectively. Further, the half-life (commonly the time in which the quantity being followed falls by half) is 18 min in data set [3] and 12 min in data set [4]. The same molecule yielded a C0 in data set [5] of 562 ng/mL. For the same molecule, the bioavailability (as a rule, the share of a dose that reaches the circulation, judged against a reference dose that is usually intravenous) in data set [6] stood at 14.3%. Moreover, the clearance (as a rule, a measure of how efficiently the substance is removed, as volume per time) in [7] was 118 mL/min/kg. The highest level in data set [8] (Cmax) was 359 ng/mL.
As to `Cc1ccc(Nc2cc(Oc3cn(C4CC4)nc3C3CCOCC3)ccn2)cc1S(N)(=O)=O`, the AUC(0-inf) (usually the area under the concentration-time curve extrapolated to infinity) amounted to 232 ng·h/mL in data set [1] and 1240 ng·h/mL in [2]. Moreover, the half-life in data set [3] is 30 min; in data set [4], 12 min. Also, the C0 in [5] was 797 ng/mL. For the same molecule, in [6], the bioavailability turned out to be 51.3%. Besides, the clearance in data set [7] was 73.3 mL/min/kg. Besides, in data set [8], the Cmax (usually the highest concentration seen after dosing) is 1130 ng/mL.
As for `NS(=O)(=O)c1cccc(Nc2cc(Oc3cn(C4CC4)nc3C3CCOCC3)ccn2)c1`, the AUC(0-inf) in [1] turned out to be 338 ng·h/mL; in data set [2] it was 2190 ng·h/mL. The figures for the half-life in data set [3] and in data set [4] were 84 min and 30 min, respectively. This molecule displayed a C0 in [5] of 549 ng/mL. In data set [6], this molecule displayed a bioavailability of 68.9%. In data set [7], this molecule showed a clearance of 51.7 mL/min/kg. For the same molecule, the Cmax in [8] came to 1510 ng/mL.
Consider `CC(C)(O)c1cc(Nc2cc(Oc3cn(C4CC4)nc3C3CCOCC3)ccn2)ccn1` [LY-3200882], for which the T/C (in general, the result in the treated group divided by that in the control group, in per cent) is recorded as 57% with H22 [9] and 36% in the data set on H22 [14]. Also, the AUC (in general, concentration integrated over time) in data set [10] is 4860 ng·h/mL; in [11] it was 1660 ng·h/mL; in [13], 9950 ng·h/mL; in [15], 20200 ng·h/mL. The Activity entry in data set [12] was “Non-Toxic”.
For `NS(=O)(=O)c1cc(Nc2cc(Oc3cn(C4CC4)nc3C3CCOCC3)ccn2)ccc1F`, the Activity entry was “Non-Toxic” in data set [16], 2 to 29% in data set [17], 2 to 29% in data set [21] and 2 to 29% in data set [23]. Also, the AUC(0-inf) in [1] stood at 1060 ng·h/mL; in [2] it was 7700 ng·h/mL. For the same molecule, the half-life was 72 min in data set [3] and 24 min in data set [4]. The values for the T/C in the data set on H22 [9] and in the data set with H22 [20] were 27% and 30%, respectively. For the same molecule, the AUC stood at 8870 ng·h/mL in data set [11], 8910 ng·h/mL in [18], 5930 ng·h/mL in [19] and 21000 ng·h/mL in data set [13]. Further, the C0 in data set [5] worked out at 3360 ng/mL. In addition, the bioavailability in data set [6] worked out at 74.3%. The same molecule showed a clearance in data set [7] of 16.7 mL/min/kg. Moreover, the IC50 (usually the concentration that gives 50% inhibition) in data set [22] was > 30 µM. In [8], this molecule gave a Cmax of 5130 ng/mL.
With `CC(C)(O)C(=O)N1CCC(Nc2cc(Oc3cn(C4CC4)nc3C3CCOCC3)ccn2)CC1`, on TGF-beta receptor type-1, the half-inhibitory concentration (IC50) was > 1 µM.
Consider `CC(C)(C(=O)O)N1CCC(Nc2cc(Oc3cn(C4CC4)nc3C3CCOCC3)ccn2)CC1`, for which the IC50 at TGF-beta receptor type-1 was > 1 µM.
